tested on: SARS-CoV-2; assay: Antiviral activity against SARS-CoV-2 infected in human A549 cells overexpressing ACE2 and TMPRSS2 assessed as reduction in viral growth incubated for 48 hrs by DAPI staining based immunofluorescence assay; type: functional, organism-based; settings: Severe acute respiratory syndrome coronavirus 2, A549, 48 h

Structure (SMILES)	EC50
CC(C)C(=O)O[C@@H]1[C@H](OC(=O)C(C)C)[C@@H](CNS(=O)(=O)c2ccc3ccccc3c2)O[C@H]1n1cnc2c(N)ncnc21	97 µM
CC(=O)Nc1ncnc2c1ncn2[C@@H]1O[C@H](CNS(=O)(=O)c2ccc3ccccc3c2)[C@@H](OC(C)=O)[C@H]1OC(C)=O	61 µM
Nc1ncnn2c([C@@H]3O[C@H](CNS(=O)(=O)c4ccc5ccccc5c4)[C@@H](O)[C@H]3O)ccc12	0.72 µM
CC(=O)O[C@@H]1[C@H](OC(C)=O)[C@@H](CNS(=O)(=O)c2ccc3ccccc3c2)O[C@H]1c1ccc2c(N)ncnn12	4.3 µM
CC(=O)O[C@@H]1[C@H](OC(C)=O)[C@@H](CNS(=O)(=O)c2ccc3ccccc3c2)O[C@H]1n1cnc2c(N)ncnc21	53 µM

tested on: SARS-CoV-2; assay: Antiviral activity against SARS-CoV-2 infected in human A549 cells overexpressing ACE2 and TMPRSS2 assessed as inhibition of viral growth at 50 uM incubated for 48 hrs by DAPI staining based immunofluorescence assay; type: functional; settings: Severe acute respiratory syndrome coronavirus 2, A549

Structure (SMILES)	inhibition at 50 µM
Nc1ncnc2c1ncn2[C@@H]1O[C@H](CNCc2ccc3ccccc3c2)[C@@H](O)[C@H]1O	< 15%
Nc1ncnc2c1ncn2[C@@H]1O[C@H](CNC(=O)c2ccc3ccccc3c2)[C@@H](O)[C@H]1O	< 15%
Nc1ncnc2c1ncn2[C@@H]1O[C@H](CNS(=O)(=O)c2ccc3cccnc3c2)[C@@H](O)[C@H]1O	< 15%
CC(=O)Nc1ncnc2c1ncn2[C@@H]1O[C@H](CNS(=O)(=O)c2ccc3ccccc3c2)[C@@H](O)[C@H]1O	< 15%
Nc1ncnc2c1ncn2[C@@H]1O[C@H](CNS(=O)(=O)c2ccc3ccccc3c2)[C@@H](O)[C@H]1O	< 15%
Nc1ncnc2c1ncn2[C@@H]1O[C@H](CNS(=O)(=O)c2ccc3nc(Cl)ccc3c2)[C@@H](O)[C@H]1O	< 15%
Nc1ncnc2c1ncn2[C@@H]1O[C@H](C[C@@H](N)CC[C@H](N)C(=O)O)[C@@H](O)[C@H]1O [SINEFUNGIN]	< 15%

tested on: not listed separately; assay: Therapeutic index, ratio of CC50 for cytotoxicity against human A549 cells overexpressing ACE2 and TMPRSS2 to EC50 for antiviral activity against SARS-CoV-2 infected in human A549 cells overexpressing ACE2 and TMPRSS2 assessed as reduction in viral growth; type: toxicity, cell-based; settings: read-out: Ratio CC50/EC50

Structure (SMILES)	selectivity ratio
Nc1ncnn2c([C@@H]3O[C@H](CNS(=O)(=O)c4ccc5ccccc5c4)[C@@H](O)[C@H]3O)ccc12	> 139
